Read-outs that look alike come from different tables or passages of the source. Square brackets hold non-standard residues; d marks the D form. Ends that are not written are not given here. * marks the point of attachment. pGlu = O=C1CC[C@@H](C(=O)O)N1; SO3H = O=S(=O)(O)*
What was measured:
[1] = system: affinity-purified rabbit antibodies to ArSK/CCK1; experiment: ELISA specificity test of affinity-purified antibodies to ArSK/CCK1; format: binding; details: TEA fraction diluted 1:10; peptide 0.1 nmol (100 µl of 1 µM); mean of six replicates
Excerpt: To generate antibodies to ArSK/CCK1, an N-terminally truncated peptide analog of ArSK/CCK1 with the addition of a reactive N-terminal lysine residue was synthesized (KY(SO3H)GHGLFW-NH2 , Peptide Protein Research Ltd, Fareham, UK). To generate antibodies to ArSK/CCKR, a peptide corresponding to the C-terminal 15 amino acids of ArSK/CCK-R with addition of an N-terminal reactive lysine residue was synthesized (KPSPTNYTNVSSDSSV, Peptide Protein Research Ltd, Fareham, UK). These peptides were conjugated to porcine thyroglobulin (Sigma-Aldrich, Gillingham, UK) as a carrier protein using 5% glutaraldehyde (Sigma-Aldrich, Gillingham, UK) in phosphate buffer (0.1 M; pH 7.2) and the conjugate was used for immunisation of a rabbit for ArSK/CCK1 (70-day protocol; Charles River Biologics, Romans, France) and a guinea pig for ArSK/CCKR (56-day protocol; Charles River Biologics, Romans, France). The antigens were emulsified in Freund’s complete adjuvant for primary immunisations (~100 nmol antigen peptide) and in Freund’s incomplete adjuvant for three booster immunisations (~50 nmol antigen peptide). The presence of antibodies to the antigen peptides in post-immunisation serum samples was assessed using an enzyme-linked immunosorbent assay (ELISA), in comparison with pre-immune serum (Figure 5—figure supplement 1a; Figure 6—figure supplement 1). Antibodies to the antigen peptides were purified from the final bleed antiserum by affinity purification using the AminoLink Plus Immobilization Kit (Thermo Fisher Scientific, Waltham, MA), with bound antibodies eluted using glycine elution buffer (6.3 ml of 100 mM glycine [VWR Chemicals, Leicestershire, UK] and 0.7 ml of Tris [1 M, pH = 7.0]) and […] (TEA) elution buffer (6.3 ml of TEA [Sigma-Aldrich, Gillingham, UK] and 0.7 ml of Tris [1 M, pH = 7.0]). Eluates were dialyzed and sodium azide (0.1%) was added for long-term storage of the affinity-purified antibodies at 4°C. The specificity of ArSK/CCK1 antibodies eluted with TEA, which were subsequently used for immunohistochemistry (see below), was assessed by ELISA by testing them at a concentration of 1:10 with the following synthetic peptides (100 µl at a concentration of 1 µM dissolved in carbonate/bicarbonate buffer [25 mM sodium carbonate, 25 mM sodium bicarbonate, pH = 9.8]): ArSK/CCK1, ArSK/CCK2, ArSK/CCK2(ns) and the A. rubens luqin-type peptide ArLQ (Figure 5—figure supplement 1b). The rabbit antiserum to ArSK/CCK1 has been assigned the RRID:AB_2877176 and the guinea pig antiserum to ArSK/CCKR has been assigned the RRID:AB_2891354.

[2] = target: T1, ArSK/CCKR (Asterias rubens, UniProt A0A8F2ZGB9); experiment: Aequorin bioluminescence receptor assay in CHO-K1 cells (G5A) co-transfected with ArSK/CCKR and human Gα16; format: cell-based; details: 10^–12 to 10^–4 M; at least three independent experiments in triplicate
T1 sequence (A0A8F2ZGB9 1-434): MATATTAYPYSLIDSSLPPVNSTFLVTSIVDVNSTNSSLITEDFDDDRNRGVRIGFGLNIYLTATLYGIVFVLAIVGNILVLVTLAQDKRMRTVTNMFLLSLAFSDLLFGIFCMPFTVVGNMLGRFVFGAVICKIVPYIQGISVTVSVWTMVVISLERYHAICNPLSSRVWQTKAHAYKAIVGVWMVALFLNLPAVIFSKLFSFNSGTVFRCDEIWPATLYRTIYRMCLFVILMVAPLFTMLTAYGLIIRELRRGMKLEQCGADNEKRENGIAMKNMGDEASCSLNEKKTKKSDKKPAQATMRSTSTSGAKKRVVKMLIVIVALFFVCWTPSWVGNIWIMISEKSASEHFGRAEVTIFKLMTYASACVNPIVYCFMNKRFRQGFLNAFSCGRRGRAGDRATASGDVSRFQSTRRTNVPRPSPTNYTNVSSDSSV
Excerpt: To enable testing of ArSK/CCK1 and ArSK/CCK2 as candidate ligands for ArSK/CCKR, a full-length cDNA encoding ArSK/CCKR was synthesized by GenScript (Piscataway, NJ) and cloned into pcDNA 3.1+ vector (Invitrogen, Thermo Fisher Scientific, Waltham, MA). A partial Kozak translation initiation sequence (CACC) was introduced upstream to the start codon (ATG). CHO-K1 cells stably expressing the mitochondrial targeted calcium-sensitive bioluminescent reporter GFP-aequorin fusion protein (G5A) ([Baubet et al., 2000]) were used as a heterologous expression system for ArSK/CCKR. These cells have been used previously for neuropeptide receptor deorphanisation ([Bauknecht and Jékely, 2015]) and were generously supplied to us by Dr Gáspár Jékely (University of Exeter). The cell line was generated using the CHO-K1 cell line from Sigma-Aldrich (85051005; RRID: CVCL_0214), which is certified by the European Collection of Authenticated Cell Cultures (ECACC), and expression of the GFP-aequorin fusion protein (G5A) in the cell line was determined by functionality in displaying calcium-activated luminescence. […] Cells were cultured, co-transfected with the pcDNA 3.1+ vector containing the ArSK/CCKR cDNA sequence and plasmids encoding the promiscuous human G-protein Gα16. Then bioluminescence-based receptor assays were performed, as described previously for A. rubens luqin-type receptors ([Yañez-Guerra et al., 2018]).
[…] Concentration-response data were determined as a percentage of the highest response for each peptide (100% activation). EC50 values were calculated from concentration-response curves based on four to six independent transfections and averaging two to three replicates in each transfection using Prism 6.0 (RRID:SCR_002798; GraphPad software, La Jolla, CA). Cells transfected with an empty vector were used for control experiments.

[3] = system: Asterias rubens; details: injected in vivo; ref Tinoco et al., 2018; cited from earlier work
Excerpt: The in vivo effect of SK/CCK-type neuropeptides in triggering cardiac stomach retraction is indicative of a role in physiological mechanisms that control termination of feeding behaviour in starfish. […] Accordingly, here we observed that starfish injected with SK/CCK-type neuropeptides took longer to enclose prey compared to control animals injected with water. Further ...

[4] = system: cardiac stomach preparations; details: cited from earlier work
Excerpt: (§1) Extra-oral feeding in starfish requires relaxation of muscle in the wall of the cardiac stomach and in intrinsic and extrinsic retractor strands to enable stomach eversion. Then when external digestion and ingestion of prey tissue is completed, contraction of the musculature enables cardiac stomach retraction ([Anderson, 1954]). Previous studies have identified neuropep ...

[5] = system: Asterias rubens; details: cited from earlier work
Excerpt: as §1

[6] = target: Asterias rubens SK/CCK-type receptor (ArSK/CCKR) (Asterias rubens)

With “EEKTRFPKFMRW-NH2 [ArLQ, A. rubens luqin-type neuropeptide …-NH2, reference compound]” the “ELISA reactivity (optical density) with antibodies to ArSK/CCK1” value [1] was “do not cross-react”.

For “GGGVPHVFQSGGIF-NH2 [ArTK2, A. rubens tachykinin-like peptide ([…]-NH2), reference compound]”, the “activation of ArSK/CCKR (luminescence)” value [2] was “inactive”.

In the case of NGFFYamide, the “onset of feeding on prey (mussels)” value [3] is given as “significant delay in the onset of feeding”, the “effect on cardiac stomach in vitro” value ([4]; ref Semmens et al., 2013) is given as “triggers contraction” and the “effect on everted cardiac stomach when injected in vivo” value ([5]; ref Semmens et al., 2013) is given as “retraction of the everted stomach”.

In the case of “SGPYSFNSGLTF-NH2 [S2, SALMFamide neuropeptide S2 (…-NH2)]”, the “effect on cardiac stomach in vitro” value ([4]; ref Melarange et al., 1999) is given as “cause relaxation”, the “effect on cardiac stomach when injected in vivo” value ([5]; ref Melarange et al., 1999) is given as “trigger cardiac stomach eversion” and the “activation of ArSK/CCKR (luminescence)” value [2] is given as “inactive”.

In the case of asterotocin, the “effect on cardiac stomach in vitro” value ([4]; ref Odekunle et al., 2019) is listed as “cause relaxation” and the “effect on cardiac stomach when injected in vivo” value ([5]; ref Odekunle et al., 2019) is listed as “trigger cardiac stomach eversion”.

B1: ArSK/CCK1 (Asterias rubens sulfakinin/cholecystokinin-type neuropeptide 1), pQSKVDDY(SO3H)GHGLFW-NH2 (peptide)
peptide: [pGlu]SKVDDY(SO3H)GHGLFW-NH2
SMILES: CC(C)C[C@H](NC(=O)CNC(=O)[C@H](Cc1c[nH]cn1)NC(=O)CNC(=O)[C@H](Cc1ccc(OS(=O)(=O)O)cc1)NC(=O)[C@H](CC(=O)O)NC(=O)[C@H](CC(=O)O)NC(=O)[C@@H](NC(=O)[C@H](CCCCN)NC(=O)[C@H](CO)NC(=O)[C@@H]1CCC(=O)N1)C(C)C)C(=O)N[C@@H](Cc1ccccc1)C(=O)N[C@@H](Cc1c[nH]c2ccccc12)C(N)=O
With B1 the EC50 of concentration-dependent luminescence (calcium, GFP-aequorin G5A) in CHO-K1 cells transfected with ArSK/CCKR and human Gα16 [6] was 0.25 nM.

B2: ArSK/CCK2 (Asterias rubens sulfakinin/cholecystokinin-type neuropeptide 2), GGDDQY(SO3H)GFGLFF-NH2 (peptide)
peptide: GGDDQY(SO3H)GFGLFF-NH2
modifications: N-terminus assumed
SMILES: CC(C)C[C@H](NC(=O)CNC(=O)[C@H](Cc1ccccc1)NC(=O)CNC(=O)[C@H](Cc1ccc(OS(=O)(=O)O)cc1)NC(=O)[C@H](CCC(N)=O)NC(=O)[C@H](CC(=O)O)NC(=O)[C@H](CC(=O)O)NC(=O)CNC(=O)CN)C(=O)N[C@@H](Cc1ccccc1)C(=O)N[C@@H](Cc1ccccc1)C(N)=O
For B2, the EC50 of concentration-dependent luminescence (calcium, GFP-aequorin G5A) in CHO-K1 cells transfected with ArSK/CCKR and human Gα16 [6] was 0.12 nM.

Molecule GGDDQYGFGLFF-NH2 [ArSK/CCK2(ns), non-sulphated form of ArSK/CCK2, …-NH2] has an EC50 of concentration-dependent luminescence (calcium, GFP-aequorin G5A) in CHO-K1 cells transfected with ArSK/CCKR and human Gα16 [6] of 48000 nM.

From article PMC8428848, “Ancient role of sulfakinin/cholecystokinin-type signalling in inhibitory regulation of feeding processes revealed in an echinoderm” (eLife, 2021)
